Measurements published in patent US8980944B2 (Gemmus Pharma Inc., priority 2006, dated 2015).
Where “and” joins values, the source holds several entries; their conditions need not be identical. Equal values may be shown once.

Assays:
[1] = test system: TNFα; assay: Poly(I:C)-stimulated human peripheral blood lymphocytes, TNFα release (ELISA)
[2] = test system: IL-12; assay: LPS-stimulated human monocyte-derived dendritic cells, IL-12 release (ELISA); conditions: 1 μM; human monocyte-derived dendritic cells, LPS stimulation; individual donors 1-4
[3] = test system: TNFα; assay: Poly(I:C)-stimulated human monocyte-derived dendritic cells, TNFα release (ELISA); assay type: cell-based; conditions: Poly IC-stimulated monocyte-derived dendritic cells, one micromolar, 18 hours
[4] = test system: IL-12; conditions: DC activated in the presence of PGE2; Hilkens et al. 1996; cited from earlier work
[5] = test system: TNFα; assay: TNFα release from human monocyte-derived dendritic cells activated with LPS, CD40 ligand or CpG-DNA (ELISA); assay type: cell-based; conditions: 1 μM; for TNFα in culture supernatant: 18 hours
Procedure: Human donor monocyte-derived dendritic cells were cultured in RPMI-1640 containing 10% fetal bovine serum for six days in the presence of 10 ng/mL IL-4 and 200 ng/mL GM-CSF. The cells were activated with various activation stimuli: 10 ng/mL LPS (Sigma), 5 μg/mL Recombinant human CD-40 ligand (R&D Systems), or 5 μM Human CpG-DNA (HyCult Biotechnology) in the presence of prostaglandin E2 (PGE2) (1 μM), vehicle control (DMSO) or test substances (1 μM) for 18 hours. The levels of cell culture supernatant TNFα for individual donors was measured by commercial ELISA kits.

[6] = test system: H5N1 influenza virus; conditions: mice infected with H5N1 influenza virus, treated; cited from earlier work
[7] = CD40 ligand 5 μg/mL, Donor 3, Vehicle 567.1
[8] = CD40 ligand 5 μg/mL, Donor 4, Vehicle 546.3
[9] = CD40 ligand 5 μg/mL, Donor 6, Vehicle 541.8
[10] = CpG 5 μM, Donor 1, Vehicle 2155.9
[11] = CpG 5 μM, Donor 3, Vehicle 1340.7
[12] = CpG 5 μM, Donor 6, Vehicle 467.8
[13] = LPS 10 ng/mL, Donor 4, Vehicle 3566.9
[14] = LPS 10 ng/mL, Donor 6, Vehicle 10750.1

For CC#CCC(C)[C@H](O)/C=C/[C@@H]1[C@H]2c3cccc(CCCC(=O)O)c3O[C@H]2C[C@H]1O (relative stereo) [Beraprost, (+/−)-(1R*,2R*,3 as*,8bS*)-2,3,3a,8b-tetrahydro-2-hydroxy-1-[(E)-(3S*)-3-hydroxy-4-methyl-1-octen-6-ynyl]-1H-cyclopenta[b]benzofuran-5-butyrate], the “TNFα percent inhibition from untreated control” value (shortened to “TNFα percent inhibition”) ([1]; Beraprost 0.04 nM, Poly IC-stimulated peripheral blood lymphocytes, individual donors 1-2) was 4%, the “TNFα percent inhibition” value ([1]; Beraprost 0.11 nM, Poly IC-stimulated peripheral blood lymphocytes, individual donors 1-2) was 26% and the “TNFα percent inhibition” value ([1]; Beraprost 1 nM, Poly IC-stimulated peripheral blood lymphocytes, individual donors 1-2) was 11% and 28%. For the same molecule, the “TNFα percent inhibition” value ([1]; Beraprost 3 nM, Poly IC-stimulated peripheral blood lymphocytes, individual donors 1-2) was 36% and 11%, the “TNFα percent inhibition” value ([1]; Beraprost 9 nM, Poly IC-stimulated peripheral blood lymphocytes, individual donors 1-2) was 35% and the “TNFα percent inhibition” value ([1]; Beraprost 250 nM, Poly IC-stimulated peripheral blood lymphocytes, individual donors 1-2) was 59%. It also gave an inhibition at 0.00011 µM ([1]; Homo sapiens, Lymphocyte, read-out: TNFα percent inhibition from untreated control, Beraprost 0.11 nM, Poly IC-stimulated peripheral blood lymphocytes, individual donors 1-2) of 19%, an inhibition at 0.009 µM ([1]; Homo sapiens, Lymphocyte, read-out: TNFα percent inhibition from untreated control, Beraprost 9 nM, Poly IC-stimulated peripheral blood lymphocytes, individual donors 1-2) of 46% and an inhibition at 0.083 µM ([1]; Homo sapiens, Lymphocyte, read-out: TNFα percent inhibition from untreated control, Beraprost 83 nM, Poly IC-stimulated peripheral blood lymphocytes, individual donors 1-2) of 56%. The inhibition at 0.25 µM ([1]; Homo sapiens, Lymphocyte, read-out: TNFα percent inhibition from untreated control, Beraprost 250 nM, Poly IC-stimulated peripheral blood lymphocytes, individual donors 1-2) was 67% and the “Poly(I:C)-induced TNFα” value ([1]; peripheral blood lymphocytes) was “significant descrease”.

With CCCCC[C@H](O)/C=C/[C@H]1[C@H](O)CC(=O)[C@@H]1C/C=C\CCCC(=O)O [PGE2, prostaglandin E2, reference compound] the “Percent inhibition of IL-12 compared to uninhibited control” value [2] was 80% and 33% and 83% and 72%, the “TNFα percent inhibition” value ([3]; Donor 1) was 96% and the “TNFα percent inhibition” value ([3]; Donor 2) was 63%. The “TNFα percent inhibition” value ([3]; Donor 3) was 81%, the “TNFα percent inhibition” value ([3]; Donor 4) was 29% and the “IL-12 production by dendritic cells” value [4] was “impaired IL-12 production”. For the same molecule, the “TNFα in culture supernatant” value [5, 7] was 147.9 pg/mL, the “TNFα in culture supernatant” value [5, 8] was 87.0 pg/mL and the “TNFα in culture supernatant” value [5, 9] was 54.2 pg/mL. For the same molecule, the “TNFα in culture supernatant” value [5, 10] was 104.5 pg/mL, the “TNFα in culture supernatant” value [5, 11] was 70.0 pg/mL and the “TNFα in culture supernatant” value [5, 12] was 106.2 pg/mL. For the same molecule, the “TNFα in culture supernatant” value [5, 13] was 0.0 pg/mL and the “TNFα in culture supernatant” value [5, 14] was 174.8 pg/mL.

In the case of CCOC(=O)C1=C[C@@H](OC(CC)CC)[C@H](NC(C)=O)[C@@H](N)C1 [Tamiflu, oseltamivir], the “survival of infected mice” value [6] is given as “survived”.

For CCC1(CC/C=C/C2C(C/C=C\CCCC(=O)O)[C@H](Cl)C[C@H]2O)CCCC1 (stereo partly drawn) [Test Substance 1, (5Z,13E)-(9R,11R)-9-chloro-11-hydroxy-17,17-tetramethylene-20-nor-5,13-prostadienoic acid], the “cytokine levels measured in the culture supernatant” value ([5]; LPS, CD40 ligand or CpG activation) was “led to an inhibition in the cytokine levels”, the “TNFα in culture supernatant” value [5, 7] was 274.3 pg/mL and the “TNFα in culture supernatant” value [5, 8] was 226.8 pg/mL. The “TNFα in culture supernatant” value [5, 9] was 142.4 pg/mL, the “TNFα in culture supernatant” value [5, 10] was 291.3 pg/mL and the “TNFα in culture supernatant” value [5, 11] was 599.4 pg/mL. The “TNFα in culture supernatant” value [5, 12] was 115.9 pg/mL, the “TNFα in culture supernatant” value [5, 13] was 643.6 pg/mL and the “TNFα in culture supernatant” value [5, 14] was 753.7 pg/mL.
